From the supplement of paper PMC10307832

How the values were obtained:
Assay in all cases: relative viability (nuclei count vs DMSO), 5 days (fraction); higher = more cells survive
[1] = compound: Cc1ccc(NC(=O)c2ccc(CN3CCN(C)CC3)cc2)cc1Nc1nccc(-c2cccnc2)n1 [Imatinib] + CC(=O)c1c(C)c2cnc(Nc3ccc(N4CCNCC4)cn3)nc2n(C2CCCC2)c1=O [Palbociclib] (partner 0.5 µM)
Summary of the method: (§1)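 After 5 days of treatment, lung cancer cells in 1536-well plates were fixed and stained in a single step (final 0.05% Triton X-100, 1% formaldehyde, 1 ug/ml Hoechst) and their nuclei counted on 4× images. Treatment had been applied by pin tool the day after seeding as one drug alone or as a fixed anchor-drug dose with five library-drug doses (not always all listed) in √10 steps. Relative viability is the nuclei count of treated wells divided by that of vehicle wells, and values are medians of duplicate plates.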

[2] = compound: Cc1ccc(NC(=O)c2ccc(CN3CCN(C)CC3)cc2)cc1Nc1nccc(-c2cccnc2)n1 [Imatinib] + CC1(C)CCC(c2ccc(Cl)cc2)=C(CN2CCN(c3ccc(C(=O)NS(=O)(=O)c4ccc(N[C@H](CCN5CCOCC5)CSc5ccccc5)c(S(=O)(=O)C(F)(F)F)c4)cc3)CC2)C1 [Navitoclax] (partner 0.5 µM)
Summary of the method: as §1

[3] = compound: Cc1ccc(NC(=O)c2ccc(CN3CCN(C)CC3)cc2)cc1Nc1nccc(-c2cccnc2)n1 [Imatinib] + Cc1cc(Nc2cc(N3CCN(C)CC3)nc(Sc3ccc(NC(=O)C4CC4)cc3)n2)n[nH]1 [Tozasertib] (partner 0.1 µM)
Summary of the method: as §1

[4] = compound: Cc1ccc(NC(=O)c2ccc(CN3CCN(C)CC3)cc2)cc1Nc1nccc(-c2cccnc2)n1 [Imatinib] + O=C(CCCCCCC(=O)Nc1ccccc1)NO [Vorinostat] (partner 1 µM)
Summary of the method: as §1

Cell Line	relative viability ([1]; first compound 0.02 µM)	relative viability ([1]; first compound 0.06325 µM)	relative viability ([1]; first compound 0.2 µM)	relative viability ([1]; first compound 0.6325 µM)	relative viability ([1]; first compound 2 µM)	relative viability ([2]; first compound 0.02 µM)	relative viability ([2]; first compound 0.06325 µM)	relative viability ([2]; first compound 0.2 µM)	relative viability ([2]; first compound 0.6325 µM)	relative viability ([2]; first compound 2 µM)	relative viability ([3]; first compound 0.02 µM)	relative viability ([3]; first compound 0.06325 µM)	relative viability ([3]; first compound 0.2 µM)	relative viability ([3]; first compound 0.6325 µM)	relative viability ([3]; first compound 2 µM)	relative viability ([4]; first compound 0.02 µM)	relative viability ([4]; first compound 0.06325 µM)	relative viability ([4]; first compound 0.2 µM)	relative viability ([4]; first compound 0.6325 µM)	relative viability ([4]; first compound 2 µM)
NCI-H1650	0.341	0.344	0.342	0.295	0.301	1.39	1.35	1.25	1.31	1.13	0.449	0.405	0.337	0.37	0.303	0.605	0.527	0.477	0.441	0.452
EPLC-272H	0.309			0.34	0.297	1.22		1.12	1.11	1.06	0.366		0.256	0.258	0.207	0.351			0.309	0.422
EMC-BAC-2	0.525	0.571	0.514	0.553	0.517	1.18	1.49	1.31	1.24	1.22	0.297	0.296	0.33	0.283	0.277	0.514	0.497	0.492	0.522	0.514
NCI-H460	0.278	0.22	0.191	0.196	0.104	1.65	1.58	1.96	1.17	1.3	0.445	0.576	0.417	0.0905	0.0547	1.4	0.636	1.09	0.705	0.735
201T	0.337	0.336	0.35	0.329	0.361	1.24		1.19	1.2	1.18	0.98		1.06		0.859	0.996	0.405		0.954	0.984
NCI-H1755	0.438	0.496	0.436	0.429	0.423	1.02	1.06	1.12	0.988	1.04	0.612	0.585	0.592	0.609	0.516	0.875	0.835	0.649	0.742	0.653
NCI-H1355	0.433		0.426	0.398	0.39	1.06		0.99	0.922	0.947	0.589		0.51	0.395	0.349	0.733		0.688	0.579	0.609
HCC-78	0.468	0.527	0.528	0.452	0.499	0.725	0.62	0.823	0.7	0.818	0.393	0.455	0.427	0.409	0.427	0.417	0.344	0.383	0.447	0.492
EKVX	0.377		0.384	0.456		1.18	0.859	0.983	0.929	0.973		0.389	0.348	0.287	0.354	0.665		0.753	0.881	0.699
BEN	0.469	0.541	0.488	0.458	0.467	0.0684	0.0589	0.0665	0.0553	0.0529	0.523	0.546	0.489	0.492	0.51	0.526	0.654	0.634	0.547	0.556
HARA	0.262		0.264	0.281	0.262	1.19	1.18	1.15	1.17	1.16	0.083		0.107	0.0993	0.101	0.615		0.595	0.546	0.653
HCC-15	0.496		0.822	0.778	0.713	0.736	0.522	0.764	0.722	0.709	0.472		0.389	0.402	0.284	0.857		0.917	0.854	0.765
NCI-H2009	0.202	0.157	0.194	0.2	0.203	1.22	1.22	1.23	1.17	1.11	0.832		0.765	0.71	0.711	0.805	0.646	0.554	0.794	0.758
NCI-H23	0.455	0.66	0.521	0.467	0.479	1.04	0.916	1.1	0.738	0.87	0.441	0.37	0.322	0.285	0.269	0.686	0.669	0.578	0.453	0.488
NCI-H838	0.254	0.255	0.241	0.254	0.247	1.34	1.54	1.34	1.14	1.28	0.241	0.318	0.28	0.307	0.275	0.77	0.786	0.74	0.708	0.76
NCI-H1395	0.622		0.579	0.526	0.589	1.07		1.04	0.979	0.989	0.679	0.773	0.76	0.663	0.7	0.687		0.67	0.698	0.594
NCI-H1666	0.678	0.628	0.642	0.705	0.621		1.16	1.06	1.1	1.06	0.622	0.623	0.603	0.665	0.574	1.04	0.986	1.06	1.27	0.946
